The structures appear in SMILES notation.

Our source for the IC50 values is publication PMC12567349, “Design and Optimization of Spiro-Isatin-Thiazolidinone Hybrids with Promising Anticancer Activity” (Pharmaceuticals, 2025).

Common to all, as to format: cell-based
One assay concerns HaCaT cells. Nature of the assay: MTT assay, 72 h, HaCaT (pseudo-normal). The note with it: Homo sapiens, mean ± SD. As for the experimental part:
(§1) The cytotoxic potential of the synthesized compounds was investigated using the MTT assay after 72 h incubation with a panel of human and murine cancer cell lines, including colorectal carcinoma (HCT116), estrogen receptor-positive breast adenocarcinoma (MCF-7), triple-negative breast adenocarcinoma (MDA-MB-231), epidermoid carcinoma (KB3-1), myeloid leukemia (K562), and glioblastoma (U373), and mouse breast carcinoma (4T1) cells. To assess the selectivity of the compounds, pseudo-normal cell lines—human keratinocytes (HaCaTs) and mouse fibroblasts (NIH3T3s)—were also tested under the same conditions.
(§2) Human breast adenocarcinoma cells of MCF-7 and MDA-MB-231 lines, human glioblastoma cells of U373 line, human chronic myelogenous leukemia cells of K562 line, human colorectal carcinoma cells of HCT116 line, and human epidermoid carcinoma cells of KB3-1 line were kindly donated by a Collection of the Institute for Cancer Research at Vienna Medical University (Vienna, Austria). Human keratinocytes of HaCaT line, murine breast carcinoma cells of 4T1 line, and murine fibroblasts of the NIH3T3 line were obtained from the Cell Collection of the R.E. Kavetsky Institute of Experimental Pathology, Oncology and Radiobiology of the National Academy of Sciences of Ukraine (Kyiv, Ukraine). MCF-7, MDA-MB-231, U373, K562, HaCaT, and NIH3T3 cells were cultured in DMEM medium (Sigma-Aldrich, Burlington, MA, USA) supplemented with 2 mM L-glutamine, 4500 mg/L glucose, and 1 mM sodium pyruvate. HCT116 and KB3-1 cells were maintained in RPMI-1640 medium supplemented with 2 mM L-glutamine (Sigma-Aldrich, USA). Both media were supplemented with 10% fetal bovine serum (Sigma-Aldrich, USA). All cell lines were incubated at 37 °C in a humidified atmosphere containing 5% CO2.
(§3) The substrate cells were seeded at a density of 5000 cells per 100 µL, while suspension K562 cells were seeded at 15,000 cells per 100 µL in 96-well plates and incubated overnight. Doxorubicin (Dox, Sigma-Aldrich, USA) was used as a reference drug. Studied substances were then added in 100 µL of culture medium, and the cells were further incubated for 72 h. Subsequently, 20 µL of MTT solution (5 mg/mL, Sigma-Aldrich, USA) was added to each well and incubated for 2–4 h. Formazan crystals were then solubilized by adding dimethyl sulfoxide (Sigma-Aldrich, USA). Absorbance was measured using a BioTek ELx800 Absorbance Reader (BioTek Instruments, Inc., Winooski, VT, USA). The results were analyzed and illustrated using GraphPad Prism (version 8.0.1; GraphPad Software, San Diego, CA, USA) and presented as a mean (M) ± standard deviation (SD). The IC50 values of the compounds were determined using nonlinear regression analysis in GraphPad Prism 10.4.2 [40].

In the next assay the test system is K562 cells. The assay can be described thus: MTT assay, 72 h, K562. Particulars: Homo sapiens, mean ± SD. As for the experimental part: as §1, §2, §3
Background: Tetrazolium dyes change colour on reduction, which living cells bring about.

The test system of a further assay is HCT116 cells. Nature of the assay: MTT assay, 72 h, HCT116. The note with it: Homo sapiens, HCT-116, mean ± SD. As to the method: as §1, §2, §3
In the next assay the test system is KB3-1 cells. Nature of the assay: MTT assay, 72 h, KB3-1. Particulars: Homo sapiens, KB 3-1, mean ± SD. As to the method: as §1, §2, §3
For the next assay, the system named is NIH3T3 cells. Nature of the assay: MTT assay, 72 h, NIH3T3 (pseudo-normal). The note with it: Mus musculus, mean ± SD. As to the method: as §1, §2, §3
A further assay concerns MDA-MB-231 cells. Nature of the assay: MTT assay, 72 h, MDA-MB-231. Particulars: Homo sapiens, mean ± SD. As to the method:
as §1, §2, §3

The next assay has as its system MCF-7 cells. Nature of the assay: MTT assay, 72 h, MCF-7. The note with it: Homo sapiens, MCF7, mean ± SD. As to the method:
as §1, §2
as §3, with “Doxorubicin (Dox, Sigma-Aldrich, USA) was used as a reference drug.” left out

The subject of the next assay is U373 cells. Nature of the assay: MTT assay, 72 h, U373. Particulars: Homo sapiens, U373 MG, mean ± SD. As for the experimental part: as §1, §2, §3
A further assay concerns 4T1 cells. The assay can be described thus: MTT assay, 72 h, 4T1. The note with it: Mus musculus, mean ± SD. As for the experimental part:
as §1, §2, §3

By IC50 is commonly meant the point on the concentration scale where inhibition reaches its midpoint. Regarding `CCOc1ccc(/C=C2\SC3(C(=O)Nc4ccc(Cl)cc43)N(c3ccc(Cl)cc3)C2=O)cc1` (centres unmarked) [Compound 9, (Z)-5-Chloro-3′-(4-chlorophenyl)-5′-(4-ethoxybenzylidene)spiro[indoline-3,2′-thiazolidine]-2,4′-dione], the IC50 in the assay with HaCaT cells is greater than 100 µM; with K562 cells, 67.1 ± 0.7 µM; in the assay on HCT116 cells, greater than 100 µM; in the assay on KB3-1 cells, 22.3 ± 1.17 µM; with NIH3T3 cells, greater than 100 µM; with MDA-MB-231 cells, 7.89 ± 0.33 µM. Further, the IC50 in the assay on MCF-7 cells was determined as 74.5 ± 4.73 µM; in the assay with U373 cells, 98.22 ± 0.87 µM; with 4T1 cells, 7.84 ± 0.49 µM.
Take `CC(C)(C)c1ccc(/C=C2\SC3(C(=O)Nc4ccc(Cl)cc43)N(c3ccc(Cl)cc3)C2=O)cc1` (centres unmarked) [Compound 15, (Z)-5′-(4-(Tert-butyl)benzylidene)-5-chloro-3′-(4-chlorophenyl)spiro[indoline-3,2′-thiazolidine]-2,4′-dione]: the IC50 in the assay with HaCaT cells is greater than 100 µM; in the assay with K562 cells it was greater than 100 µM; with HCT116 cells, greater than 100 µM; with KB3-1 cells, 9.77 ± 0.78 µM; with NIH3T3 cells it was 90.32 ± 0.68 µM; in the assay with MDA-MB-231 cells, 30.7 ± 0.45 µM. Besides, the 50% inhibitory concentration (IC50) with MCF-7 cells was determined as 77.4 ± 2.9 µM; with U373 cells it was 79.3 ± 1.31 µM; with 4T1 cells it was 46.6 ± 2.98 µM.
Regarding `COc1ccc(N2C(=O)/C(=C/C=C/c3ccccc3)SC23C(=O)Nc2ccc(Cl)cc23)cc1` (centres unmarked) [Compound 6, (Z)-5-Chloro-3′-(4-methoxyphenyl)-5′-((E)-3-phenylallylidene)spiro[indoline-3,2′-thiazolidine]-2,4′-dione], the half-maximal inhibitory concentration (IC50) in the assay with HaCaT cells is 85.3 ± 1.27 µM; in the assay with K562 cells, greater than 100 µM; in the assay on HCT116 cells, greater than 100 µM; in the assay on KB3-1 cells, 45.23 ± 0.36 µM; with NIH3T3 cells, greater than 100 µM; in the assay with MDA-MB-231 cells, 55.9 ± 5.67 µM. Also, the IC50 with MCF-7 cells is 83.3 ± 6.03 µM; with U373 cells it was 69.5 ± 0.9 µM; in the assay with 4T1 cells it was 68 ± 2.6 µM.
`O=C1/C(=C/c2ccc(N3CCOCC3)cc2)SC2(C(=O)Nc3ccc(Cl)cc32)N1c1ccc(Cl)cc1` (centres unmarked) [Compound 10, (Z)-5-Chloro-3′-(4-chlorophenyl)-5′-(4-morpholinobenzylidene)spiro[indoline-3,2′-thiazolidine]-2,4′-dione]: the half-maximal inhibitory concentration (IC50) with HaCaT cells is greater than 100 µM; in the assay on K562 cells, greater than 100 µM; in the assay on HCT116 cells it was greater than 100 µM; in the assay with KB3-1 cells it was 16.9 ± 0.86 µM; with NIH3T3 cells it was greater than 100 µM; in the assay on MDA-MB-231 cells, greater than 100 µM. Further, the half-maximal inhibitory concentration (IC50) in the assay on MCF-7 cells, in the assay with U373 cells and with 4T1 cells was greater than 100 µM each time.
In the case of `CCOc1ccc(/C=C2\SC3(C(=O)Nc4ccc(F)cc43)N(Cc3ccccc3)C2=O)cc1` (centres unmarked) [Compound 19, (Z)-3′-Benzyl-5′-(4-ethoxybenzylidene)-5-fluorospiro[indoline-3,2′-thiazolidine]-2,4′-dione], the half-maximal inhibitory concentration (IC50) in the assay with HaCaT cells was 96.79 ± 0.78 µM; with K562 cells it was greater than 100 µM; with HCT116 cells, 62.7 ± 0.76 µM; with KB3-1 cells, 35 ± 0.48 µM; in the assay on NIH3T3 cells, 94.35 ± 0.87 µM; with MDA-MB-231 cells, 59.3 ± 2.27 µM. Moreover, the results for the IC50 in the assay with MCF-7 cells, in the assay on U373 cells and in the assay on 4T1 cells were 63.9 ± 0.59 µM, 54.89 ± 0.33 µM and 60.5 ± 1.84 µM, respectively.
On to `COc1cccc2c1C(=O)c1c(O)c3c(c(O)c1C2=O)C[C@@](O)(C(=O)CO)C[C@@H]3O[C@H]1C[C@H](N)[C@H](O)[C@H](C)O1` [Dox, Doxorubicin, reference compound], for which the IC50 in the assay with HaCaT cells came out at 3.1 ± 0.18 µM; with K562 cells it was 0.95 ± 0.11 µM; in the assay on HCT116 cells, 0.9 ± 0.11 µM; in the assay with KB3-1 cells it was 0.53 ± 0.08 µM; with NIH3T3 cells it was 0.63 ± 0.12 µM; with MDA-MB-231 cells, 0.6 ± 0.08 µM. In addition, the half-maximal inhibitory concentration (IC50) stood at 0.35 ± 0.09 µM in the assay with U373 cells and 0.73 ± 0.1 µM with 4T1 cells.
Turning to `O=C1/C(=C/c2ccc(-c3ccccn3)cc2)SC2(C(=O)Nc3ccc(Cl)cc32)N1c1ccc(Cl)cc1` (centres unmarked) [Compound 13, (Z)-5-Chloro-3′-(4-chlorophenyl)-5′-(4-(pyridin-2-yl)benzylidene)spiro[indoline-3,2′-thiazolidine]-2,4′-dione], the IC50 was greater than 100 µM in the assay on HaCaT cells; 5.55 ± 0.17 µM in the assay on K562 cells; 41.4 ± 0.62 µM with HCT116 cells; 0.99 ± 0.08 µM in the assay on KB3-1 cells; greater than 100 µM in the assay with NIH3T3 cells; greater than 100 µM in the assay with MDA-MB-231 cells. Further, the 50% inhibitory concentration (IC50) in the assay with MCF-7 cells, in the assay on U373 cells and in the assay on 4T1 cells was greater than 100 µM throughout.
For `CC(C)(C)c1ccc(/C=C2\SC3(C(=O)Nc4ccc(Br)cc43)N(c3ccc(Br)cc3)C2=O)cc1` (centres unmarked) [Compound 16, (Z)-5-Bromo-3′-(4-bromophenyl)-5′-(4-(tert-butyl)benzylidene)spiro[indoline-3,2′-thiazolidine]-2,4′-dione], the 50% inhibitory concentration (IC50) in the assay with HaCaT cells is greater than 100 µM; with K562 cells, greater than 100 µM; in the assay with HCT116 cells, greater than 100 µM; in the assay with KB3-1 cells it was 29.5 ± 0.33 µM; with NIH3T3 cells, greater than 100 µM; with MDA-MB-231 cells it was 53.27 ± 0.51 µM. Also, the IC50 with MCF-7 cells was greater than 100 µM; in the assay on U373 cells it was greater than 100 µM; with 4T1 cells, 69 ± 5.11 µM.
For `COc1ccc(N2C(=O)CSC23C(=O)Nc2ccc(Cl)cc23)cc1` (centres unmarked) [Compound 1, 5-Chloro-3′-(4-methoxyphenyl)spiro[indoline-3,2′-thiazolidine]-2,4′-dione], the half-maximal inhibitory concentration (IC50) is 96.7 ± 1.02 µM in the assay with HaCaT cells; 71.8 ± 7.79 µM with K562 cells; greater than 100 µM in the assay with HCT116 cells; 62.3 ± 0.51 µM in the assay with KB3-1 cells; 77.6 ± 1.82 µM in the assay on NIH3T3 cells; 85.3 ± 1.15 µM in the assay with MDA-MB-231 cells. In addition, the IC50 with MCF-7 cells is greater than 100 µM; in the assay on U373 cells, 76.7 ± 0.54 µM; in the assay on 4T1 cells, 89.4 ± 1.93 µM.
With `O=C1CSC2(C(=O)Nc3ccc(Cl)cc32)N1Cc1ccccc1` (centres unmarked) [Compound 5, 3′-Benzyl-5-chlorospiro[indoline-3,2′-thiazolidine]-2,4′-dione], the IC50 in the assay on HaCaT cells is greater than 100 µM; in the assay with K562 cells it was 95.5 ± 2.64 µM; in the assay on HCT116 cells, 92.8 ± 1.09 µM; in the assay with KB3-1 cells it was 52.1 ± 0.67 µM; with NIH3T3 cells it was greater than 100 µM; with MDA-MB-231 cells, 68.79 ± 0.62 µM. Also, the values for the IC50 in the assay on MCF-7 cells, in the assay with U373 cells and in the assay on 4T1 cells were 42.6 ± 1.24 µM, 76.2 ± 0.8 µM and 95.3 ± 1.07 µM, respectively.
Take `O=C1CSC2(C(=O)Nc3ccc(Br)cc32)N1c1ccc(Br)cc1` (centres unmarked) [Compound 3, 5-Bromo-3′-(4-bromophenyl)spiro[indoline-3,2′-thiazolidine]-2,4′-dione]: the IC50 was 38.4 ± 0.77 µM in the assay on HaCaT cells; 7.99 ± 0.12 µM in the assay on K562 cells; 88.9 ± 6.33 µM in the assay with HCT116 cells; 46.7 ± 0.54 µM with KB3-1 cells; 82.9 ± 2.05 µM in the assay on NIH3T3 cells; 56.5 ± 1.93 µM in the assay with MDA-MB-231 cells. Besides, the IC50 in the assay on MCF-7 cells was 64 ± 4.77 µM; in the assay on U373 cells, 49.4 ± 1.33 µM; in the assay on 4T1 cells, 43.8 ± 1.76 µM.
Regarding `O=C1CSC2(C(=O)Nc3ccc(Cl)cc32)N1c1ccc(Cl)cc1` (centres unmarked) [Compound 2, 5-Chloro-3′-(4-chlorophenyl)spiro[indoline-3,2′-thiazolidine]-2,4′-dione], the concentration for half-maximal inhibition (IC50) is 82.8 ± 1.94 µM in the assay with HaCaT cells; 9.96 ± 1.17 µM in the assay on K562 cells; greater than 100 µM in the assay on HCT116 cells; 51.77 ± 0.26 µM with KB3-1 cells; 98.25 ± 0.64 µM with NIH3T3 cells; 62.69 ± 0.22 µM in the assay with MDA-MB-231 cells. The values for the IC50 in the assay with MCF-7 cells, in the assay on U373 cells and with 4T1 cells were 84.9 ± 6.51 µM, 77.91 ± 0.56 µM and 73 ± 7.02 µM, respectively.
